What was measured:
[1] = biological target: T1, hTP (Homo sapiens, UniProt P21731); assay: Other receptors functional EC50, hTP; format: cell-based
T1 sequence (P21731 1-343): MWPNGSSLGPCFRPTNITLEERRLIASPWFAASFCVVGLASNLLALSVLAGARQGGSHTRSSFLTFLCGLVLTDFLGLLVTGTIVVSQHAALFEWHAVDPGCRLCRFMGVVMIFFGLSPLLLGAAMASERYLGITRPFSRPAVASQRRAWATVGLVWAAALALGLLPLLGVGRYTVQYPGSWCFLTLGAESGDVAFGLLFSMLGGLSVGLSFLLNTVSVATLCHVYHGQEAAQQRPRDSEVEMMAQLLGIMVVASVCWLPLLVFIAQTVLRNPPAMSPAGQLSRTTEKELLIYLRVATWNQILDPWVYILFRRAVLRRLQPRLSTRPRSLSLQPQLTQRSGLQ
From the text: (§1) U.S. patent application Ser. No. 11/553,143, filed on Oct. 26, 2006, incorporated by reference herein, describes the methods used to obtain the in vitro data in the table below.

[2] = biological target: T2, hDP (Homo sapiens, UniProt Q13258); assay: Other receptors functional EC50, hDP; format: cell-based
T2 sequence (Q13258 1-359): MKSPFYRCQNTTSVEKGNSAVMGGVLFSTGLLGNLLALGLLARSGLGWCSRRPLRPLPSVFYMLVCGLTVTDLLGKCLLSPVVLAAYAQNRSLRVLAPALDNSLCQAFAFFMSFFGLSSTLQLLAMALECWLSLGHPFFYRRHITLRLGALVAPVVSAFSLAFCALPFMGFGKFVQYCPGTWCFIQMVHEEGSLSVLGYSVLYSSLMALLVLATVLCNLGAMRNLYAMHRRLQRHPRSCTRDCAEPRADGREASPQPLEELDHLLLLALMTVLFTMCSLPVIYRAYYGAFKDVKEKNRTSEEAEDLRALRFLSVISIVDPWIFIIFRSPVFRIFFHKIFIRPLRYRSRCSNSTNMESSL
From the text: as §1

[3] = biological target: EP2 (Homo sapiens, UniProt P43116); assay: EP2 binding (Ki)
EP2, sequence (P43116 whole entry): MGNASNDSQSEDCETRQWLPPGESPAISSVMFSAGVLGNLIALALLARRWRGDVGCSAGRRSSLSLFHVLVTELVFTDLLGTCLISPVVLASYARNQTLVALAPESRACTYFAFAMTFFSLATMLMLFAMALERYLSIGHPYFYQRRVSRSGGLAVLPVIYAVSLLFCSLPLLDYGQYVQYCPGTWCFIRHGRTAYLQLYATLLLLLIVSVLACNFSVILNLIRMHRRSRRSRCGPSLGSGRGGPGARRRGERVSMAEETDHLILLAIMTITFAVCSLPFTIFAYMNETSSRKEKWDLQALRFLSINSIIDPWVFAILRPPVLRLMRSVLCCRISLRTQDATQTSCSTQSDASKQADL
From the text: as §1

Structure (SMILES)	EC50 [1]	EC50 [2]	Ki [3]
CCCCCC(O)c1ccc(N(CC#CCCCC(=O)O)C(C)=O)cc1 (stereo not drawn) [7-(N-(4-(1-hydroxyhexyl)phenyl)acetamido)hept-5-ynoic acid]	8.53 µM		
CCCCCC(O)c1ccc(N(CCCc2ccc(C(=O)O)s2)C(C)=O)cc1 (stereo not drawn) [5-(-3-(N-(4-(1-hydroxyhexyl)phenyl)acetamido)propyl)thiophene-2-carboxylic acid]		4.76 µM	> 10 µM

Reference: patent US7985767B2, “Therapeutic amides” (Allergan, Inc., priority 2006, dated 2011)
